The values that follow come from patent publication US7649012B2, “Compounds, pharmaceutical compositions containing same, and methods of use for same” (FASgen, Inc., priority 2002, dated 2010).

Converted amounts (≈) assume the structure as drawn. Where two headings read alike, the source gives them in different places.

Format in all cases: cell-based
Test [1] deals with Staphylococcus aureus (ATCC # 29213). Put plainly: Broth microdilution MIC. To be noted: for MIC: Staphylococcus aureus, ATCC29213. The method, then: (§1) A broth microdilution assay is used to assess the antimicrobial activity of the compounds. […] Microorganisms tested include Staphylococcus aureus (ATCC # 29213), Enterococcus faecalis (ATCC # 29212), Pseudomonas aeruginosa (ATCC # 27853), and Escherichia coli (ATCC # 25922). The assay is performed in two growth media, Mueller Hinton Broth and Trypticase Soy Broth. […] Colonies are suspended in sterile broth so that the turbidity matches the turbidity of a 0.5 McFarland standard. The inoculum is diluted 1:10 in sterile broth (Mueller Hinton or Trypticase soy) and 195 ul is dispensed per well of a 96-well plate. The compounds to be tested, dissolved in DMSO, are added to the wells in 5 ul volume at the following concentrations: 25, 12.5, 6.25, 3.125, 1.56 and 0.78 ug/ml in duplicate. Additional concentrations are tested if required. 5 ul of DMSO added to duplicate wells are the vehicle control. Serial dilutions of positive control compounds, vancomycin (E. faecalis and S. aureus) and tobramycin (E. coli and P. aeruginosa), are included in each run. After 24 hours of incubation at 37° C., plates are read at OD600 on a Molecular Devices SpectraMax Plus Spectrophotometer. Average OD600 values are computed using SOFTmax Pro Software (Molecular Devices) and MIC values are determined by linear regression analysis using Prism version 3.02 (Graph Pad Software, San Diego).
A general note: In broth dilution the organism is exposed to a series of concentrations in liquid medium.

In test [2] the test system is Pseudomonas aeruginosa (ATCC # 27853). The experiment in a line: Broth microdilution MIC. To be noted: for PSAE/MH(MIC): Mueller Hinton Broth; for PSAE/Tsoy(MIC): Trypticase Soy Broth. As to the method: as §1
The test system of test [3] is Escherichia coli (ATCC # 25922). The experiment in a line: Broth microdilution MIC. Conditions: for MIC: Escherichia coli, ATCC25922. The method, then: as §1
The test system of test [4] is Enterococcus faecalis (ATCC # 29212). Put plainly: Broth microdilution MIC. To be noted: for MIC: Enterococcus faecalis, ATCC29212. The method, then: as §1
Test [5] has as its system MCF-7 human breast cancer cells. The experiment in a line: [14C]acetate incorporation into total lipids. To be noted: for IC50: Homo sapiens, MCF7, [14C]acetate incorporation into lipids; for 14C(IC50): [14C]acetate incorporation into lipids. As to the method:
This assay measures the incorporation of [^14C]acetate into total lipids and is a measure of fatty acid synthesis pathway activity in vitro. It is utilized to measure inhibition of fatty acid synthesis in vitro.
MCF-7 human breast cancer cells cultured as above, are plated at 5×10^4 cells per well in 24-well plates. […] DMSO is added to triplicate wells for a vehicle control. C75 is run at 5 and 10 μg/ml in triplicate as positive controls. After 4 hours of incubation, 0.25 μCi of [^14C]acetate (10 μl volume) is added to each well.
After 2 hours of additional incubation, medium is aspirated from the wells and 800 μl of chloroform:methanol (2:1) and 700 μl of 4 mM MgCl2 is added to each well. Contents of each well are transferred to 1.5 Eppendorf tubes, and spun at full-speed for 2 minutes in a high-speed Eppendorf Microcentrifuge 5415D. After removal of the aqueous (upper) layer, an additional 700 μl of chloroform:methanol (2:1) and 500 μl of 4 mM MgCl2 are added to each tube and then centrifuged for 1 minutes as above. The aqueous layer is removed with a Pasteur pipette and discarded. An additional 400 μl of chloroform:methanol (2:1) and 200 μl of 4 mM MgCl2 are added to each tube, then centrifuged and aqueous layer is discarded. The lower (organic) phase is transferred into a scintillation vial and dried at 40° C. under N2 gas. Once dried, 3 ml of scintillant (APB #NBC5104) is added and vials are counted for ^14C. The Beckman Scintillation counter calculates the average cpm values for triplicates.
The IC50 for the compounds is defined as the concentration of drug leading to a 50% reduction in [^14C]acetate incorporation into lipids compared to controls. […] The average cpm values are computed by the Beckman scintillation counter (Model LS6500) for each compound concentration. Computation of linear regression, best-fit line, r^2, and 95% confidence intervals are calculated using Prism Version 3.0 (Graph Pad Software).

Setting [6] is: Trypticase Soy Broth, read-out: SA/Tsoy(MIC).
Where [7] appears, read: Mueller Hinton Broth, read-out: EF/MH(MIC).
Where [8] appears, read: Mueller Hinton Broth, read-out: SA/MH(MIC).
[9] abbreviates: Trypticase Soy Broth, read-out: EF/Tsoy(MIC).
Where [10] appears, read: Trypticase Soy Broth, read-out: Ecoli/Tsoy(MIC).
[11] abbreviates: Mueller Hinton Broth, read-out: Ecoli/MH(MIC).

As a reminder, the IC50 is the concentration that gives 50% inhibition. High values mean a need for much substance, low ones inhibition by little substance.

`CCCCCCCC[C@@]1(C)SC(=O)C=C1OCC(=O)OCC` (racemic): the “SA/MH(MIC)” value in test [1] (Mueller Hinton Broth) is listed as “Neg”. For the same compound, the MIC in test [1] (setting [6]) was 83 µg/mL (≈ 253 µM). For the same compound, in test [2], the “PSAE/MH(MIC)” value is reported as “Neg” and the “PSAE/Tsoy(MIC)” value is reported as “Neg”. Also, the “Ecoli/MH(MIC)” value in test [3] (Mueller Hinton Broth) is reported as “Neg”. For the same compound, the “Ecoli/Tsoy(MIC)” value in test [3] (Trypticase Soy Broth) was “Neg”. For the same compound, the MIC in test [4] (setting [7]) is 86 µg/mL (≈ 262 µM). The “EF/Tsoy(MIC)” value in test [4] (Trypticase Soy Broth) is “Neg”. The compound also displayed a concentration for half-maximal inhibition (IC50) in test [5] of 10.8 ± 5.8 µg/mL (≈ 32.9 µM).
Turning to `CCCCCCCC[C@@]1(C)SC(=O)C=C1OC(=O)CC` (racemic), the MIC in test [1] (setting [8]) turned out to be 88 µg/mL (≈ 295 µM); in test [1] (setting [6]) it was 62 µg/mL (≈ 208 µM); in test [4] (setting [7]), 102 µg/mL (≈ 342 µM); in test [4] (setting [9]), 147 µg/mL (≈ 493 µM). The “PSAE/MH(MIC)” value in test [2] was “Neg”. Also, in test [2], the “PSAE/Tsoy(MIC)” value was “Neg”. In addition, the “Ecoli/MH(MIC)” value in test [3] (Mueller Hinton Broth) was “Neg”. Further, in test [3] (Trypticase Soy Broth), the “Ecoli/Tsoy(MIC)” value was “Neg”. Moreover, 22.6 µg/mL (≈ 75.7 µM) corresponded to half-maximal inhibition in test [5] (IC50).
As to `CCCC/C=C/C=C/C1(C)SC(=O)C=C1O` (stereo not drawn), in test [1] (Mueller Hinton Broth), the “SA/MH(MIC)” value is “Neg”. The MIC in test [1] (setting [6]) was found to be 55 µg/mL (≈ 231 µM); in test [3] (setting [10]), 263 µg/mL (≈ 1100 µM); in test [4] (setting [7]) it was 78 µg/mL (≈ 327 µM); in test [4] (setting [9]), 42 µg/mL (≈ 176 µM). Also, the “PSAE/MH(MIC)” value in test [2] is given as “Neg”. The “PSAE/Tsoy(MIC)” value in test [2] is “Neg”. Also, in test [3] (Mueller Hinton Broth), the “Ecoli/MH(MIC)” value is “Neg”. The same compound returned a half-maximal inhibitory concentration (IC50) in test [5] of 25.7 µg/mL (≈ 108 µM).
With `CCCCCC[C@@]1(C)SC(=O)C=C1OCC(=O)NCC(=O)OC` (racemic), the MIC worked out at 69 µg/mL (≈ 201 µM) in test [1] (setting [8]), 111 µg/mL (≈ 323 µM) in test [1] (setting [6]) and 156 µg/mL (≈ 454 µM) in test [3] (setting [11]). In addition, the “PSAE/MH(MIC)” value in test [2] is reported as “Neg”. Also, the “PSAE/Tsoy(MIC)” value in test [2] is reported as “Neg”. The “Ecoli/Tsoy(MIC)” value in test [3] (Trypticase Soy Broth) is on record as “Neg”. Besides, the “EF/MH(MIC)” value in test [4] (Mueller Hinton Broth) is “Neg”. The “EF/Tsoy(MIC)” value in test [4] (Trypticase Soy Broth) was “Neg”. In test [5], this compound had a 50% inhibitory concentration (IC50) of 9.8 µg/mL (≈ 28.5 µM).
Turning to `CC1(Cc2ccccc2)SC(=O)C=C1O` (stereo not drawn), the MIC in test [1] (setting [8]) amounted to 57 µg/mL (≈ 259 µM); in test [1] (setting [6]) it was 67 µg/mL (≈ 304 µM); in test [3] (setting [10]) it was 299 µg/mL (≈ 1360 µM); in test [4] (setting [7]), 128 µg/mL (≈ 581 µM). In addition, in test [2], the “PSAE/MH(MIC)” value was “Neg”. In addition, the “PSAE/Tsoy(MIC)” value in test [2] is recorded as “Neg”. Besides, the “Ecoli/MH(MIC)” value in test [3] (Mueller Hinton Broth) is “Neg”. In addition, in test [4] (Trypticase Soy Broth), the “EF/Tsoy(MIC)” value is “Neg”. For the same compound, the “14C(IC50)” value in test [5] is “Neg”.
Consider `C=CCC1=C(OC)C(C)(CCCCCCCC)SC1=O` (stereo not drawn), for which the “SA/MH(MIC)” value in test [1] (Mueller Hinton Broth) is on record as “Neg”. Also, in test [1] (setting [6]), the MIC was determined as 98 µg/mL (≈ 331 µM). In test [2], the “PSAE/MH(MIC)” value is on record as “Neg” and the “PSAE/Tsoy(MIC)” value was “Neg”. Moreover, the “Ecoli/MH(MIC)” value in test [3] (Mueller Hinton Broth) is listed as “Neg”. Also, the “Ecoli/Tsoy(MIC)” value in test [3] (Trypticase Soy Broth) is “Neg”. Also, in test [4] (setting [9]), the MIC was determined as 169 µg/mL (≈ 570 µM). The “EF/MH(MIC)” value in test [4] (Mueller Hinton Broth) is “Neg”. For the same compound, the half-maximal inhibitory concentration (IC50) in test [5] is 23.1 ± 17.4 µg/mL (≈ 77.9 µM).
`C#CCOC1CC(=O)S[C@]1(C)CCCCCC` (mixture of isomers): the MIC in test [1] (setting [8]) amounted to 53 µg/mL; in test [1] (setting [6]) it was 80 µg/mL; in test [3] (setting [11]), 203 µg/mL; in test [4] (setting [9]), 83 µg/mL. Further, the “PSAE/MH(MIC)” value in test [2] is “Neg”. Also, the “PSAE/Tsoy(MIC)” value in test [2] is recorded as “Neg”. In addition, in test [3] (Trypticase Soy Broth), the “Ecoli/Tsoy(MIC)” value is recorded as “Neg”. In test [4] (Mueller Hinton Broth), the “EF/MH(MIC)” value is given as “Neg”. Moreover, in test [5], the IC50 is 21.9 ± 1.5 µg/mL.
For `CCCCCCCCC1(C)SC(=O)C(C)=C1OC` (stereo not drawn), the MIC in test [1] (setting [8]) was determined as 132 µg/mL (≈ 488 µM); in test [1] (setting [6]) it was 108 µg/mL (≈ 399 µM); in test [4] (setting [7]) it was 208 µg/mL (≈ 769 µM); in test [4] (setting [9]), 94 µg/mL (≈ 348 µM). The “PSAE/MH(MIC)” value in test [2] is reported as “Neg”. In addition, in test [2], the “PSAE/Tsoy(MIC)” value was “Neg”. Moreover, the “Ecoli/MH(MIC)” value in test [3] (Mueller Hinton Broth) was “Neg”. Also, the “Ecoli/Tsoy(MIC)” value in test [3] (Trypticase Soy Broth) is on record as “Neg”. Moreover, in test [5], the IC50 stood at 63.8 µg/mL (≈ 236 µM).
For the compound `C=CCOC1=CC(=O)S[C@]1(C)CCCCCC` (racemic), the MIC worked out at 73 µg/mL (≈ 287 µM) in test [1] (setting [8]), 54 µg/mL (≈ 212 µM) in test [1] (setting [6]) and 158 µg/mL (≈ 621 µM) in test [4] (setting [9]). In test [2], the “PSAE/MH(MIC)” value is reported as “Neg”. Also, the “PSAE/Tsoy(MIC)” value in test [2] is “Neg”. The “Ecoli/MH(MIC)” value in test [3] (Mueller Hinton Broth) is given as “Neg”. The “Ecoli/Tsoy(MIC)” value in test [3] (Trypticase Soy Broth) was “Neg”. Further, the “EF/MH(MIC)” value in test [4] (Mueller Hinton Broth) is “Neg”. Moreover, the “14C(IC50)” value in test [5] is given as “Neg”.
